Test results: patent US20210164992A1, “COMPOSITIONS AND METHODS RELATED TO INNATE RESPONSE TO DNA AND REGULATION OF INTERFERON-BETA” (priority 2018, published 2021)

What was measured:
cellular m^6A effectors = experiment: HCMV-induced accumulation of cellular m^6A effector proteins in NHDFs (immunoblotting); type: cell-based, human; settings: NHDFs infected with HCMV (MOI=3); PP242 25 μM vs DMSO (FIG. 1E)
IFNB1 mRNA [1] = experiment: dsDNA-induced IFNB1 mRNA accumulation in primary human fibroblasts (RT-PCR), Rhein treatment; type: cell-based; settings: primary human fibroblasts transfected with dsDNA, measured after 9 h; Rhein added 24 h prior to or at time of transfection; vs DMSO vehicle (FIG. 16)
HCMV = HCMV reproduction and spread in NHDFs, virus titer (TCID/50); type: cell-based, human cytomegalovirus; settings: 1 μM JAK inhibitor (Pyridone 6) vs DMSO
IFNB1 mRNA [2] = experiment: IFNB1 mRNA abundance in response to dsDNA in siRNA-treated NHDFs with or without JAK inhibitor (qRT-PCR); type: cell-based, human; settings: NHDFs transfected with dsDNA, JAK inhibitor (Pyridone 6) vs DMSO (FIG. 5A)

SMILES: CC(C)n1nc(-c2cc3cc(O)ccc3[nH]2)c2c(N)ncnc21 [PP242]
- HCMV-induced increase in cellular m^6A effectors (cellular m^6A effectors): repressed

SMILES: O=C(O)c1cc(O)c2c(c1)C(=O)c1cccc(O)c1C2=O [Rhein]
- IFNB1 mRNA production (IFNB1 mRNA [1]): dose-dependent inhibition of IFNB1 mRNA production

SMILES: CC(C)(C)c1nc2c3cc[nH]c(=O)c3c3cc(F)ccc3c2[nH]1 [JAK inhibitor, Pyridone 6]
- increase of HCMV reproduction in control siRNA-treated cultures (HCMV; MOI=0.05, 7 d (FIG. 2D)): less than 10 fold
- HCMV reproduction in METTL14 siRNA-treated cultures (HCMV; MOI=0.05, 7 d, compared to control siRNA levels (FIG. 2D)): to a large extent restored HCMV reproduction
- kinetics of IFNB1 mRNA accumulation (IFNB1 mRNA [2]): faster
